Type in all cases: cell-based, human
The test system of experiment [1] is HUVEC cells. In words: In vitro angiogenesis assay (H2O2-induced tubeformation in matrigel). The following applies: 5-FU alone, 6 hours after treatment. How it is done:
(§1) The in vitro angiogenesis assay was a model test used for studying anti-angiogenic nutrient or drugs, and the assay was highly convenient and fast. […] H2O2 was used to induce tubeformation in matrigel to evaluate the effect of Lycogen on the index of angiogenesis. HUVEC cells were dissolved in 10% serum-containing culture media, and then HUVEC cells were seeded into matrigel pre-coated 24-well plates in a density of […] per well. Except for the control group HUVEC cells in all other groups were treated with solvent vehicle, 5-FU, 5-FU plus 10 μM Lycogen, 5-FU plus 30 μM Lycogen, and 5-FU plus 50 μM of Lycogen, respectively. Each assay under the same experimental condition was performed in duplicate and this experiment was repeated twice. Phase contrast photomicrographs were taken by a phase contrast microscope with 100× magnification at 6 hours after the treatment.

Experiment [2] has as its system HUVEC cells. The experiment in a line: Cell migration analysis under the angiogenesis assay conditions. The settings on record: 5-FU alone. Here is the method:
as §1
In another example, the effect of Lycogen on cell migration was analyzed under the same conditions of the aforementioned angiogenesis analysis.

Experiment [3] deals with EA.hy926 cell line. The experiment in a line: EA.hy926 cell migration analysis (migration areas). The settings on record: 25 μg/mL 5-FU, 24 hours. How it is done:
In another example, the effect of Lycogen on cell migration in human umbilical vein endothelial cell line (EA.hy926 cell line) was analyzed. The cell line was treated with different concentrations of Lycogen (0, 2, 5, and 10 μM) or 25 μg/mL 5-FU, and the EA.hy926 cell migration was analyzed 24 hours after treatments to calculate the migration areas.

Experiment [4] relates to EA.hy926 cell line. The experiment in a line: Cancer cell invasion assay (Matrigel, fluorescent microscope). The following applies: 25 μg/mL 5-FU, 24 hours, compared to 0 μg/ml group. Here is the method: In one embodiment, the EA.hy926 cell line was used to analyze the ability of Lycogen on inhibiting cancer cell invasion. EA.hy926 cell line was treated with various concentration of Lycogen (0, 2, 5, and 10 μM) or 25 μg/mL 5-FU. Twenty-four hours after treatment, the Matrigel was used to analyze the cell invasion, and fluorescent microscope was used to observe the cancer cell invasion.
Cells were cultured on the plate, which was covered by a semipermeable membrane, to mimic the condition of cell invasion in vivo. The basal membrane was interrupted in invasive tumor cell to invade adjacent tissue. The cell culture plate was scratched by a sterile tip or cotton thread to create an acellular space. The cell lines were treated with different treatments, and then the cell number inside the membrane was counted.

The source of these data is US9675563B2, “Method for adjunctive treatment of cancer metastasis by using lycogen” (ASIA-PACIFIC BIOTECH DEVELOPING, INC., priority 2015, dated 2017).

As for `O=c1[nH]cc(F)c(=O)[nH]1` [5-FU], the cell tubeformation entry with HUVEC cells [1] is given as “did inhibit”. In addition, the cell migration result in the experiment with HUVEC cells [2] is “did inhibit”. Moreover, the “cancer cell migration (migration areas)” value in the experiment on EA.hy926 cell line [3] was “had the ability of inhibiting cancer cell migration”. Further, the invaded cell number entry in the experiment on EA.hy926 cell line [4] is “significantly decreased”.
